Assay results published in PubChem BioAssay AID1963873 (Molecular Pharmacology Branch, DTP, NCI, 2024).

Tested on: 276233-004-R-J1-PDC KRAS spheroids with HUVEC/MSC, viability
Assay: Anticancer human tumor 276233-004-R-J1-PDC patient-derived colon adenocarcinoma cell line growth inhibition [KRAS2]
Conditions: for IC50: curve of first compound; for viability, T/C: stronger effect = lower value
Summary of the method: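 Combination screen of spheroid viability in tumor-cell co-cultures with endothelial (HUVEC) and mesenchymal stem cell stroma. Each agent was tested in half-log dilutions, topping at clinical Cmax or at 10 microM without a known Cmax.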

[1] = second compound 0.1 µM, first compound 0.01 µM
[2] = second compound 0.1 µM, first compound 0.0316 µM
[3] = second compound 0.1 µM, first compound 0.1 µM
[4] = second compound 0.1 µM, first compound 0.316 µM
[5] = second compound 0.1 µM, first compound 1 µM
[6] = second compound 0.1 µM, first compound 3.16 µM
[7] = second compound 0.316 µM, first compound 0.01 µM
[8] = second compound 0.316 µM, first compound 0.0316 µM
[9] = second compound 0.316 µM, first compound 0.1 µM
[10] = second compound 0.316 µM, first compound 0.316 µM
[11] = second compound 0.316 µM, first compound 1 µM
[12] = second compound 0.316 µM, first compound 3.16 µM
[13] = second compound 1 µM, first compound 0.01 µM
[14] = second compound 1 µM, first compound 0.0316 µM
[15] = second compound 1 µM, first compound 0.1 µM
[16] = second compound 1 µM, first compound 0.316 µM
[17] = second compound 1 µM, first compound 1 µM
[18] = second compound 1 µM, first compound 3.16 µM
[19] = second compound 3.16 µM, first compound 0.01 µM
[20] = second compound 3.16 µM, first compound 0.0316 µM
[21] = second compound 3.16 µM, first compound 0.1 µM
[22] = second compound 3.16 µM, first compound 0.316 µM
[23] = second compound 3.16 µM, first compound 1 µM
[24] = second compound 3.16 µM, first compound 3.16 µM
[25] = second compound 10 µM, first compound 0.01 µM
[26] = second compound 10 µM, first compound 0.0316 µM
[27] = second compound 10 µM, first compound 0.1 µM
[28] = second compound 10 µM, first compound 0.316 µM
[29] = second compound 10 µM, first compound 1 µM
[30] = second compound 10 µM, first compound 3.16 µM
[31] = second compound 0.1 µM, first compound 10 µM
[32] = second compound 0.316 µM, first compound 10 µM
[33] = second compound 1 µM, first compound 10 µM
[34] = second compound 3.16 µM, first compound 10 µM
[35] = second compound 10 µM, first compound 10 µM
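Note: cells exposed to agents for seven days before viability read.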
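Throughout, for viability, T/C: 100% = DMSO vehicle control wells and lower values mean fewer viable cells.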

| SMILES | IC50 (second compound 0.1 µM) [µM] | IC50 (second compound 0.316 µM) [µM] | IC50 (second compound 1 µM) [µM] | IC50 (second compound 3.16 µM) [µM] | IC50 (second compound 10 µM) [µM] | viability, T/C [2] [%] | viability, T/C [3] [%] | viability, T/C [4] [%] | viability, T/C [5] [%] | viability, T/C [6] [%] | viability, T/C [8] [%] | viability, T/C [9] [%] | viability, T/C [10] [%] | viability, T/C [11] [%] | viability, T/C [14] [%] | viability, T/C [15] [%] | viability, T/C [20] [%] | viability, T/C [21] [%] | viability, T/C [26] [%] | viability, T/C [27] [%] | other results |
| --- | --- | --- | --- | --- | --- | --- | --- | --- | --- | --- | --- | --- | --- | --- | --- | --- | --- | --- | --- | --- | --- |
| CC1COCCN1c1cc(-c2ccnn2C)c2ccnc(-c3ccn[nH]3)c2n1 (stereo not given) + CNCc1ccccc1-c1csc(C(C)Nc2nc(C)nc3cc(OC)c(OC)cc23)c1 | > 3.16 | > 3.16 | > 3.16 | < 0.01 | < 0.01 | 95.5 | 90.2 | 82.8 | 70 | 57 | 94.1 | 87.7 | 85.3 | 77.9 | 86.7 | 69.9 | 1.11 | 1.38 | 3.53 | 0.82 | viability, T/C [1]: 93.1%; viability, T/C [7]: 93.2%; viability, T/C [12]: 59.1%; viability, T/C [13]: 82%; viability, T/C [16]: 63.1%; viability, T/C [17]: 57.7%; viability, T/C [18]: 50.9%; viability, T/C [19]: 0.49%; viability, T/C [22]: 1.8%; viability, T/C [23]: 2.11%; viability, T/C [24]: 1.03%; viability, T/C [25]: 0.67%; viability, T/C [28]: 0.17%; viability, T/C [29]: 0.15%; viability, T/C [30]: 2.79% |
| CC1OCC2(CCN(c3cnc(Sc4ccnc(N)c4Cl)c(N)n3)CC2)C1N (stereo not given) + CNCc1ccccc1-c1csc(C(C)Nc2nc(C)nc3cc(OC)c(OC)cc23)c1 | > 10 | > 10 | 0.392 | < 0.0316 | < 0.0316 | 73.8 | 101 | 66.1 | 82 | 73.3 | 92.8 | 90.2 | 68.6 | 60.9 | 88.9 | 84.1 | 0.87 | 0.85 | 1.45 | 3.57 | viability, T/C [31]: 59%; viability, T/C [12]: 66%; viability, T/C [32]: 46.5%; viability, T/C [16]: 50.8%; viability, T/C [17]: 50%; viability, T/C [18]: 50.3%; viability, T/C [33]: 34.5%; viability, T/C [22]: 1.57%; viability, T/C [23]: 2.11%; viability, T/C [24]: 0.56%; viability, T/C [34]: 3.18%; viability, T/C [28]: 0.22%; viability, T/C [29]: 0.25%; viability, T/C [30]: 0.32%; viability, T/C [35]: 5.87% |
| CCNC(=O)CC1N=C(c2ccc(Cl)cc2)c2cc(OC)ccc2-n2c(C)nnc21 (stereo not given) + CNCc1ccccc1-c1csc(C(C)Nc2nc(C)nc3cc(OC)c(OC)cc23)c1 | > 10 | > 10 | > 10 | < 0.0316 | < 0.0316 | 86.7 | 84.3 | 68.2 | 68.3 | 72.8 | 88.2 | 82.8 | 85.5 | 73.5 | 87.3 | 71.2 | 0.46 | 0.86 | 0.24 | 1.77 | viability, T/C [31]: 54.4%; viability, T/C [12]: 72.7%; viability, T/C [32]: 67.1%; viability, T/C [16]: 67.2%; viability, T/C [17]: 61%; viability, T/C [18]: 56.8%; viability, T/C [33]: 66.3%; viability, T/C [22]: 2.72%; viability, T/C [23]: 0.85%; viability, T/C [24]: 2.19%; viability, T/C [34]: 1.93%; viability, T/C [28]: 0.22%; viability, T/C [29]: 0.26%; viability, T/C [30]: 0.43%; viability, T/C [35]: 0.23% |
| Cn1nccc1Nc1nccc(-c2cc3c(s2)C(C)(C)N(CCN2CCOCC2)C3=O)n1 + CNCc1ccccc1-c1csc(C(C)Nc2nc(C)nc3cc(OC)c(OC)cc23)c1 | 7.27 | > 10 | 1.06 | < 0.0316 | < 0.0316 | 107 | 91.7 | 80.2 | 81.6 | 49.3 | 115 | 89.9 | 94.2 | 79.3 | 86 | 83.1 | 3.02 | 2.17 | 2.67 | 2.95 | viability, T/C [31]: 49.4%; viability, T/C [12]: 50.1%; viability, T/C [32]: 60.2%; viability, T/C [16]: 68%; viability, T/C [17]: 52.4%; viability, T/C [18]: 27.3%; viability, T/C [33]: 6.69%; viability, T/C [22]: 2.97%; viability, T/C [23]: 3.66%; viability, T/C [24]: 1.05%; viability, T/C [34]: 0.59%; viability, T/C [28]: 1.94%; viability, T/C [29]: 1.75%; viability, T/C [30]: 1.4%; viability, T/C [35]: 0.24% |
| CC(=O)OC12COC1CC(O)C1(C)C(=O)C(O)C3=C(C)C(OC(=O)C(O)C(NC(=O)OC(C)(C)C)c4ccccc4)CC(O)(C(OC(=O)c4ccccc4)C21)C3(C)C (stereo not given) + COc1cc2nc(C)nc(NC(C)c3cc(N)cc(C(F)(F)F)c3)c2cc1OC1CCOC1 | > 3.16 | > 3.16 | > 3.16 | > 3.16 | > 3.16 | 75.9 | 83.1 | 91.8 | 86.1 | 94 | 80.7 | 72 | 65.4 | 78.3 | 73.3 | 82 | 70.5 | 58.9 | 61.2 | 73.3 | viability, T/C [1]: 86.8%; viability, T/C [7]: 75.1%; viability, T/C [12]: 71.7%; viability, T/C [13]: 73.4%; viability, T/C [16]: 76.4%; viability, T/C [17]: 92.2%; viability, T/C [18]: 78.5%; viability, T/C [19]: 78.3%; viability, T/C [22]: 61.2%; viability, T/C [23]: 69.3%; viability, T/C [24]: 66.3%; viability, T/C [25]: 64.3%; viability, T/C [28]: 72.7%; viability, T/C [29]: 78.8%; viability, T/C [30]: 77.8% |
| CN(C)C/C=C/C(=O)Nc1cc2c(Nc3ccc(F)c(Cl)c3)ncnc2cc1O[C@H]1CCOC1 + COc1cc2nc(C)nc(NC(C)c3cc(N)cc(C(F)(F)F)c3)c2cc1OC1CCOC1 | > 0.1 | > 0.1 | > 0.1 | > 0.1 | > 0.1 | 79.8 | 80.2 | – | – | – | 68.5 | 74 | – | – | 71.4 | 67.5 | 56 | 66.3 | 63.6 | 63.4 | viability, T/C (second compound 0.1 µM, first compound 0.000316 µM): 99.4%; viability, T/C (second compound 0.1 µM, first compound 0.001 µM): 95.6%; viability, T/C (second compound 0.1 µM, first compound 0.00316 µM): 77.4%; viability, T/C [1]: 86.9%; viability, T/C (second compound 0.316 µM, first compound 0.000316 µM): 80%; viability, T/C (second compound 0.316 µM, first compound 0.001 µM): 82.9%; viability, T/C (second compound 0.316 µM, first compound 0.00316 µM): 71.7%; viability, T/C [7]: 61.1%; viability, T/C (second compound 1 µM, first compound 0.000316 µM): 86.1%; viability, T/C (second compound 1 µM, first compound 0.001 µM): 107%; viability, T/C (second compound 1 µM, first compound 0.00316 µM): 87.9%; viability, T/C [13]: 83.8%; viability, T/C (second compound 3.16 µM, first compound 0.000316 µM): 64.4%; viability, T/C (second compound 3.16 µM, first compound 0.001 µM): 66.9%; viability, T/C (second compound 3.16 µM, first compound 0.00316 µM): 74.7%; viability, T/C [19]: 63%; viability, T/C (second compound 10 µM, first compound 0.000316 µM): 65%; viability, T/C (second compound 10 µM, first compound 0.001 µM): 69%; viability, T/C (second compound 10 µM, first compound 0.00316 µM): 67.4%; viability, T/C [25]: 65.5% |
